Experimental data from patent US10894784B2, “Heteroarylbenzimidazole compounds” (BAYER PHARMA AKTIENGESELLSCHAFT, priority 2015, dated 2021).

target: TBK1 (Homo sapiens (Human), UniProt Q9UHD2); assay: TBK1 low ATP kinase assay (in vitro assay 1); format: biochemical; conditions: TBK1 low ATP kinase assay IC50, in vitro assay 1
Sequence (Q9UHD2 whole entry): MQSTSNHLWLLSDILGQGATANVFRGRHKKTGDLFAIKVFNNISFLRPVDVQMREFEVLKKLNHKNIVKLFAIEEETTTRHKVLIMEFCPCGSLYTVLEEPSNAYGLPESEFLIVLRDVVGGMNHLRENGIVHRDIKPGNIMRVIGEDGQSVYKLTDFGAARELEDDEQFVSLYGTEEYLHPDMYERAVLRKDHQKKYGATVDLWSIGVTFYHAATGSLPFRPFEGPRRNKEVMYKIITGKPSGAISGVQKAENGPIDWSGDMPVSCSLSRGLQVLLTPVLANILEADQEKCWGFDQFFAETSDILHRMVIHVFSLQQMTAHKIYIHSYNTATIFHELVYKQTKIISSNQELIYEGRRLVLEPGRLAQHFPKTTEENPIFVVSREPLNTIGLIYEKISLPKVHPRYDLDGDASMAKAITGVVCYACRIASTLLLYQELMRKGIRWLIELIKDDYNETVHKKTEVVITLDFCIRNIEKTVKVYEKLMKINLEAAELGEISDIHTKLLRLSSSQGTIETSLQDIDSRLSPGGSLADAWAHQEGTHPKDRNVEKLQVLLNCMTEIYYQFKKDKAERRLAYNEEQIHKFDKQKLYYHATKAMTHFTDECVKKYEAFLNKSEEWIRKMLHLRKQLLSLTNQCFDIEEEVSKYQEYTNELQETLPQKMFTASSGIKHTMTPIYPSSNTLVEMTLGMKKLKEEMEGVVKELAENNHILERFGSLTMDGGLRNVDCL

With `CC(c1ccnc(Nc2nc3ccc(-c4cc(N(C)C)ncn4)cc3[nH]2)c1)N1CCN(C(=O)CC(F)(F)F)CC1` (single isomer, unassigned) [Example 100.01, 1-(4-{(1R or 1S)-1-[2-({6-[6-(dimethylamino)pyrimidin-4-yl]-1H-benzimidazol-2-yl}amino)pyridin-4-yl]ethyl}piperazin-1-yl)-3,3,3-trifluoropropan-1-one] the IC50 was 1.5 nM.

same assay, conditions: in vitro assay 1, read-out: TBK1 low ATP kinase assay IC50

`Cc1cc(-c2ccc3nc(Nc4cc(C(C)N5CCN(C(=O)CC(F)(F)F)CC5)ccn4)[nH]c3c2)n(C)n1` (single isomer, unassigned) [Example 89.02, 1-{4-[(1R or 1S)-1-(2-{[6-(1,3-dimethyl-1H-pyrazol-5-yl)-1H-benzimidazol-2-yl]amino}pyridin-4-yl)ethyl]piperazin-1-yl}-3,3,3-trifluoropropan-1-one] and `Cc1cc(-c2ccc3nc(Nc4cc(C(C)N5CCN(C(=O)C6CC6)CC5)ccn4)[nH]c3c2)n(C)n1` (single isomer, unassigned) [Example 89.03, cyclopropyl{4-[(1R or 1S)-1-(2-{[6-(1,3-dimethyl-1H-pyrazol-5-yl)-1H-benzimidazol-2-yl]amino}pyridin-4-yl)ethyl]piperazin-1-yl}methanone] are within 1.5-fold of each other in IC50: 450 nM for the first, 320 nM for the second.

Going from `Cc1cc(-c2ccc3nc(Nc4cc(C(C)N5CCN(C(=O)OC(C)(C)C)CC5)ccn4)[nH]c3c2Cl)ncn1` (single isomer, unassigned) [Example 98.01, tert-butyl 4-[(1R or 1S)-1-(2-{[7-chloro-6-(6-methylpyrimidin-4-yl)-1H-benzimidazol-2-yl]amino}pyridin-4-yl)ethyl]piperazine-1-carboxylate] to `Cc1cc(-c2ccc3nc(Nc4cc(C(C)N5CCN(C(=O)CC(F)(F)F)CC5)ccn4)[nH]c3c2Cl)ncn1` (single isomer, unassigned) [Example 98.02, 1-{4-[(1R or 1S)-1-(2-{[7-chloro-6-(6-methylpyrimidin-4-yl)-1H-benzimidazol-2-yl]amino}pyridin-4-yl)ethyl]piperazin-1-yl}-3,3,3-trifluoropropan-1-one], the IC50 falls from 100 nM to 44 nM (2.3-fold). The second is the more potent here.

First: COCc1cc(-c2ccc3nc(Nc4cc(C(C)N5CCN(C(=O)CC(F)(F)F)CC5)ccn4)[nH]c3c2Cl)ncn1 (single isomer, unassigned) [Example 99.01, 1-(4-{(1R or 1S)-1-[2-({7-chloro-6-[6-(methoxymethyl)pyrimidin-4-yl]-1H-benzimidazol-2-yl}amino)pyridin-4-yl]ethyl}piperazin-1-yl)-3,3,3-trifluoropropan-1-one]
Second: COc1c(-c2ccc3nc(Nc4cc(C(C)N5CCN(C(=O)CC(F)(F)F)CC5)ccn4)[nH]c3c2)ncnc1N(C)C (single isomer, unassigned) [Example 107.02.03, 1-(4-{(1R or 1S)-1-[2-({6-[6-(dimethylamino)-5-methoxypyrimidin-4-yl]-1H-benzimidazol-2-yl}amino)pyridin-4-yl]ethyl}piperazin-1-yl)-3,3,3-trifluoropropan-1-one]
The IC50 of the first is 6.1-fold higher: 33 nM for the first, 5.4 nM for the second.

Compared with `CC(c1ccnc(Nc2nc3ccc(-c4cc(N(C)C)ncn4)cc3[nH]2)c1)N1CCN(C(=O)C2CC2)CC1` (single isomer, unassigned) [Example 100.03, cyclopropyl(4-{(1R or 1S)-1-[2-({6-[6-(dimethylamino)pyrimidin-4-yl]-1H-benzimidazol-2-yl}amino)pyridin-4-yl]ethyl}piperazin-1-yl)methanone], `COc1c(-c2ccc3nc(Nc4cc(C(C)N5CCN(C(=O)C6CC6)CC5)ccn4)[nH]c3c2)ncnc1N(C)C` (single isomer, unassigned) [Example 107.02.02, cyclopropyl(4-{(1R or 1S)-1-[2-({6-[6-(dimethylamino)-5-methoxypyrimidin-4-yl]-1H-benzimidazol-2-yl}amino)pyridin-4-yl]ethyl}piperazin-1-yl)methanone] is 3-fold higher in IC50: 2 nM for the first, 5.9 nM for the second.

First: COc1c(-c2ccc3nc(Nc4cc(C(C)N5CCN(C(=O)OC(C)(C)C)CC5)ccn4)[nH]c3c2)ncnc1N(C)C (single isomer, unassigned) [Example 107.02.01, tert-butyl 4-{(1R or 1S)-1-[2-({6-[6-(dimethylamino)-5-methoxypyrimidin-4-yl]-1H-benzimidazol-2-yl}amino)pyridin-4-yl]ethyl}piperazine-1-carboxylate]
Second: COc1c(-c2ccc3nc(Nc4cc(C(C)N5CCN(C(=O)OC(C)(C)C)CC5)ccn4)[nH]c3c2)ncnc1N1CCC1 (single isomer, unassigned) [Example 111.01, tert-butyl 4-{(1R or 1S)-1-[2-({6-[6-(azetidin-1-yl)-5-methoxypyrimidin-4-yl]-1H-benzimidazol-2-yl}amino)pyridin-4-yl]ethyl}piperazine-1-carboxylate]
The IC50 of the first is 8.1-fold higher: 21 nM for the first, 2.6 nM for the second.

First: COc1c(-c2ccc3nc(Nc4cc(C(C)N5CCN(C(=O)C6(C(F)(F)F)CC6)CC5)ccn4)[nH]c3c2)ncnc1N(C)C (single isomer, unassigned) [Example 107.02.04, (4-{(1R or 1S)-1-[2-({6-[6-(dimethylamino)-5-methoxypyrimidin-4-yl]-1H-benzimidazol-2-yl}amino)pyridin-4-yl]ethyl}piperazin-1-yl)[1-(trifluoromethyl)cyclopropyl]methanone]
Second: COc1c(-c2ccc3nc(Nc4cc(C(C)N5CCN(C(=O)CC(F)(F)F)CC5)ccn4)[nH]c3c2)ncnc1N1CCC1 (single isomer, unassigned) [Example 111.03, 1-(4-{(1R or 1S)-1-[2-({6-[6-(azetidin-1-yl)-5-methoxypyrimidin-4-yl]-1H-benzimidazol-2-yl}amino)pyridin-4-yl]ethyl}piperazin-1-yl)-3,3,3-trifluoropropan-1-one]
The IC50 of the first is 3.7-fold higher: 5.2 nM for the first, 1.4 nM for the second. The second is the more potent here.

Going from `COc1c(NCC2CC2)ncnc1-c1ccc2nc(Nc3cc(C(C)N4CCN(C(=O)OC(C)(C)C)CC4)ccn3)[nH]c2c1` (single isomer, unassigned) [Example 109.02.01, tert-butyl 4-[(1R or 1S)-1-{2-[(6-{6-[(cyclopropylmethyl)amino]-5-methoxypyrimidin-4-yl}-1H-benzimidazol-2-yl)amino]pyridin-4-yl}ethyl]piperazine-1-carboxylate] to `COc1c(NC2CCC2)ncnc1-c1ccc2nc(Nc3cc(C(C)N4CCN(C(=O)OC(C)(C)C)CC4)ccn3)[nH]c2c1` (single isomer, unassigned) [Example 114.01, tert-butyl 4-{(1R or 1S)-1-[2-({6-[6-(cyclobutylamino)-5-methoxypyrimidin-4-yl]-1H-benzimidazol-2-yl}amino)pyridin-4-yl]ethyl}piperazine-1-carboxylate], the IC50 rises from 8 nM to 61 nM (7.6-fold). The first is the more potent here.

`COc1c(NCC2CC2)ncnc1-c1ccc2nc(Nc3cc(C(C)N4CCN(C(=O)C5CC5)CC4)ccn3)[nH]c2c1` (single isomer, unassigned) [Example 109.02.02, cyclopropyl{4-[(1R or 1S)-1-{2-[(6-{6-[(cyclopropylmethyl)amino]-5-methoxypyrimidin-4-yl}-1H-benzimidazol-2-yl)amino]pyridin-4-yl}ethyl]piperazin-1-yl}methanone] and `COc1c(NCC2CC2)ncnc1-c1ccc2nc(Nc3cc(C(C)N4CCN(C(=O)CC(F)(F)F)CC4)ccn3)[nH]c2c1` (single isomer, unassigned) [Example 109.02.03, 1-{4-[(1R or 1S)-1-{2-[(6-{6-[(cyclopropylmethyl)amino]-5-methoxypyrimidin-4-yl}-1H-benzimidazol-2-yl)amino]pyridin-4-yl}ethyl]piperazin-1-yl}-3,3,3-trifluoropropan-1-one] are within 1.5-fold of each other in IC50: 2 nM for the first, 2.4 nM for the second.

`COc1c(-c2ccc3nc(Nc4cc(C(C)N5CCN(C(=O)C6CC6)CC5)ccn4)[nH]c3c2)ncnc1N1CCC1` (single isomer, unassigned) [Example 111.02, (4-{(1R or 1S)-1-[2-({6-[6-(azetidin-1-yl)-5-methoxypyrimidin-4-yl]-1H-benzimidazol-2-yl}amino)pyridin-4-yl]ethyl}piperazin-1-yl)(cyclopropyl)methanone] and `COc1c(-c2ccc3nc(Nc4cc(C(C)N5CCN(C(=O)C6CC6)CC5)ccn4)[nH]c3c2)ncnc1N1CCCC1` (single isomer, unassigned) [Example 112.02, cyclopropyl(4-{(1R or 1S)-1-[2-({6-[5-methoxy-6-(pyrrolidin-1-yl)pyrimidin-4-yl]-1H-benzimidazol-2-yl}amino)pyridin-4-yl]ethyl}piperazin-1-yl)methanone] are within 1.5-fold of each other in IC50: 1 nM for the first, 1.3 nM for the second.

Going from `COc1c(-c2ccc3nc(Nc4cc(C(C)N5CCN(C(=O)OC(C)(C)C)CC5)ccn4)[nH]c3c2)ncnc1N1CCCC1` (single isomer, unassigned) [Example 112.01, tert-butyl 4-{(1R or S)-1-[2-({6-[5-methoxy-6-(pyrrolidin-1-yl)pyrimidin-4-yl]-1H-benzimidazol-2-yl}amino)pyridin-4-yl]ethyl}piperazine-1-carboxylate] to `COc1c(-c2ccc3nc(Nc4cc(C(C)N5CCN(C(=O)CC(F)(F)F)CC5)ccn4)[nH]c3c2)ncnc1N1CCCC1` (single isomer, unassigned) [Example 112.03, 3,3,3-trifluoro-1-(4-{(1R or 1S)-1-[2-({6-[5-methoxy-6-(pyrrolidin-1-yl)pyrimidin-4-yl]-1H-benzimidazol-2-yl}amino)pyridin-4-yl]ethyl}piperazin-1-yl)propan-1-one], the IC50 falls from 8.2 nM to 1.4 nM (5.9-fold). The second is the more potent here.

`COc1c(-c2ccc3nc(Nc4cc(C(C)N5CCN(C(=O)CC(F)(F)F)CC5)ccn4)[nH]c3c2)ncnc1N1CC(F)(F)C1` (single isomer, unassigned) [Example 113.02, 1-(4-{(1R or 1S)-1-[2-({6-[6-(3,3-difluoroazetidin-1-yl)-5-methoxypyrimidin-4-yl]-1H-benzimidazol-2-yl}amino)pyridin-4-yl]ethyl}piperazin-1-yl)-3,3,3-trifluoropropan-1-one] and `COc1c(-c2ccc3nc(Nc4cc(C(C)N5CCN(C(=O)C6CC6)CC5)ccn4)[nH]c3c2)ncnc1N1CC(F)(F)C1` (single isomer, unassigned) [Example 113.03, cyclopropyl(4-{(1R or 1S)-1-[2-({6-[6-(3,3-difluoroazetidin-1-yl)-5-methoxypyrimidin-4-yl]-1H-benzimidazol-2-yl}amino)pyridin-4-yl]ethyl}piperazin-1-yl)methanone] are within 1.5-fold of each other in IC50: 1.6 nM for the first, 1.1 nM for the second.
